Measured values: patent publication US8426174B2, “Method for the production of 2-butanol” (Butamax(TM) Advanced Biofuels LLC, priority 2007, dated 2013)
Read-outs that look alike come from different tables or passages of the source.

Assays:
E. coli strain MG1655 = system: E. coli strain MG1655
Experimental: For the stationary phase studies, E. coli strain MG1655 (ATCC #700926) was grown overnight in LB medium (Teknova, Half Moon Bay, Calif.) with shaking at 250 rpm at 42° C., 29° C. or 28° C. […] To these were added 10 μL of the overnight cultures and the tubes were immediately placed in shaking incubators at 42° C. or 28° C. or left on ice for 30 min. […] Then, 5 μL of the undiluted treated cultures were spotted on LB agar plates. Subsequent 10-fold serial dilutions of 10^−3, 10^−4, 10^−5 and 10^−6 of the exposed cultures were done by serial pipetting of 20 μL, starting with the 10^−2 dilution cultures, into 180 μL of LB medium in the microplate, using a multi-channel pipette. Prior to each transfer, the cultures were mixed by pipetting up and down six times. Each dilution (5 μL) was spotted onto an LB plate using a multi-channel pipette and allowed to soak into the plate. The plates were inverted and incubated overnight at 37° C. […] Survival of 0% was recorded when no colonies in the spots of the undiluted or any of the serial dilutions were observed.

L. plantarum PN0512 = conditions: for % Survival at 37° C. / % Survival at 23° C. / % Survival at 0° C. / concentration at which L. plantarum PN0512 cells were killed: one hour
Experimental: (§1) Using overnight cultures or cells from plates, 30 mL cultures of the microorganisms to be tested were started in the following culture media: • E. coli—Miller's LB medium (Teknova, Half Moon Bay, Calif.): • L. plantarum PN0512—Lactobacilli MRS Broth (BD Diagnostic Systems, Sparks, Md.). The E. coli and L. plantarum cultures were grown at 37° C. aerobically with shaking until the cultures were in log phase and the OD600 was between 0.6 and 0.8. A 50 μL aliquot of each culture was removed for a time zero sample. The remainder of the cultures was divided into six 5 mL portions and placed in six small incubation flasks or tubes. […] The flasks or tubes were incubated at a desired temperature, aerobically without shaking for 1 h. After the incubation with one of the butanols, 2 μL from each of the flasks (and in addition 2 μL of the time zero sample of the culture before exposure to one of the butanols) were pipetted into the “head” wells of a 96 well (8×12) microtiter plate, each containing 198 μL of LB medium to give a 10^−2 dilution of the culture. Subsequently, 10^−3, 10^−4, 10^−5, and 10^−6 serial dilutions of the cultures were prepared as follows. The 10^−3 dilution was prepared by pipetting 20 μL of the sample from the head well into the 180 μL LB medium in the next well using a multi-channel pipette. This procedure was repeated 3 more times on successive wells to prepare the 10^−4, 10^−5, and 10^−6 dilutions. After each liquid transfer, the solution in the well was mixed by pipetting it up and down 10 times with the multi-channel pipetor. A 5 μL aliquot of each dilution was spotted onto an LB plate using a multi-channel pipette starting with the 10^−6 dilution, then the 10^−5, and so on working from more to less dilute without a change of tips. The spots were allowed to soak into the agar by leaving the lid of the plate slightly open for 15 to 30 min in a sterile transfer hood. The plates were covered, inverted, and incubated overnight at 37° C. The following day, the number of colonies in the spots were counted from the different dilutions. The number of living cells/mL in each of the original culture solutions from which the 2 μL was withdrawn was calculated and compared to the number of cells in the control untreated culture to determine the % of the cells surviving.

E. coli (strain MG1655) = conditions: for % Survival at 30° C. / % Survival at 37° C. / % Survival at 0° C.: 1 h; for concentration at which E. coli cells were killed: one hour
Experimental: as §1

[1] = 1.0 % (w/v) 1-butanol, grown at 29° C.
[2] = 1.0 % (w/v) 1-butanol, grown at 42° C.
[3] = 1.5 % (w/v) 1-butanol, grown at 29° C.
[4] = 1.5 % (w/v) 1-butanol, grown at 42° C.
[5] = 2.0 % (w/v) 1-butanol, grown at 29° C.
[6] = 2.0 % (w/v) 1-butanol, grown at 42° C.
[7] = 3.0 % (w/v) 1-butanol, grown at 29° C.
[8] = 3.0 % (w/v) 1-butanol, grown at 42° C.
[9] = 4.0 % (w/v) 1-butanol, grown at 29° C.
[10] = 4.0 % (w/v) 1-butanol, grown at 42° C.
[11] = […] (w/v) 1-butanol, grown at 29° C.
[12] = […] (w/v) 1-butanol, grown at 42° C.

1-butanol
80%: % Survival at 37° C. (L. plantarum PN0512; 1 % v/v 1-butanol)
2 % v/v: concentration at which E. coli cells were killed (E. coli (strain MG1655); 37° C.)
29%: % Survival at 37° C. (L. plantarum PN0512; 2 % v/v 1-butanol)
3.5 % v/v: concentration at which L. plantarum PN0512 cells were killed (L. plantarum PN0512; 23° C.)
58%: % Survival at 37° C. (L. plantarum PN0512; 1.5 % v/v 1-butanol)
2.5 % v/v: concentration at which L. plantarum PN0512 cells were killed (L. plantarum PN0512; 37° C.)
3 % v/v: concentration at which E. coli cells were killed (E. coli (strain MG1655); 30° C.)
0.1%: % survival after 30 min exposure at 42° C. (E. coli strain MG1655; [3]) | % survival after 30 min exposure at 42° C. (E. coli strain MG1655; [4]) | % survival after 30 min exposure at 42° C. (E. coli strain MG1655; [5])
1%: % survival after 30 min exposure at 0° C. (E. coli strain MG1655; 5.0 % (w/v) 1-butanol, grown at 29° C.) | % survival after 30 min exposure at 0° C. (E. coli strain MG1655; 5.0 % (w/v) 1-butanol, grown at 42° C.)
82%: % Survival at 23° C. (L. plantarum PN0512; 3 % v/v 1-butanol)
0.0004%: % survival after 30 min exposure at 28° C. (E. coli strain MG1655; [10])
≤ 4.5 % v/v: concentration with no toxic effect on L. plantarum PN0512 cells (L. plantarum PN0512; 0° C., one hour treatment) | concentration with no toxic effect on E. coli cells (E. coli (strain MG1655); 0° C., one hour treatment)
0.0003%: % survival after 30 min exposure at 28° C. (E. coli strain MG1655; 4.0 % (w/v) 1-butanol, grown at 28° C.)
0%: % survival after 30 min exposure at 42° C. (E. coli strain MG1655; [6]) | % survival after 30 min exposure at 42° C. (E. coli strain MG1655; [7]) | % survival after 30 min exposure at 42° C. (E. coli strain MG1655; [8]) | % survival after 30 min exposure at 42° C. (E. coli strain MG1655; [9]) | % survival after 30 min exposure at 42° C. (E. coli strain MG1655; [10]) | % survival after 30 min exposure at 0° C. (E. coli strain MG1655; 6.0 % (w/v) 1-butanol, grown at 42° C.) | % survival after 30 min exposure at 0° C. (E. coli strain MG1655; 7.0 % (w/v) 1-butanol, grown at 29° C.) | % survival after 30 min exposure at 0° C. (E. coli strain MG1655; 7.0 % (w/v) 1-butanol, grown at 42° C.) | % survival after 30 min exposure at 42° C. (E. coli strain MG1655; [11]) | % survival after 30 min exposure at 42° C. (E. coli strain MG1655; [12]) | % Survival at 37° C. (L. plantarum PN0512; 3 % v/v 1-butanol) | % Survival at 23° C. (L. plantarum PN0512; 4 % v/v 1-butanol) | % Survival at 0° C. (L. plantarum PN0512; 5 % v/v 1-butanol) | % Survival at 0° C. (L. plantarum PN0512; 5.5 % v/v 1-butanol) | % Survival at 37° C. (E. coli (strain MG1655); 2 % v/v 1-butanol) | % Survival at 30° C. (E. coli (strain MG1655); 3 % v/v 1-butanol) | % Survival at 37° C. (E. coli (strain MG1655); 3 % v/v 1-butanol) | % Survival at 37° C. (E. coli (strain MG1655); […] v/v 1-butanol)
72%: % Survival at 37° C. (E. coli (strain MG1655); 1 % v/v 1-butanol)
20%: % Survival at 37° C. (E. coli (strain MG1655); 1.5 % v/v 1-butanol)
100%: % survival after 30 min exposure at 28° C. (E. coli strain MG1655; 1.0 % (w/v) 1-butanol, grown at 28° C.) | % survival after 30 min exposure at 0° C. (E. coli strain MG1655; [1]) | % survival after 30 min exposure at 42° C. (E. coli strain MG1655; [1]) | % survival after 30 min exposure at 0° C. (E. coli strain MG1655; [2]) | % survival after 30 min exposure at 28° C. (E. coli strain MG1655; [2]) | % survival after 30 min exposure at 42° C. (E. coli strain MG1655; [2]) | % survival after 30 min exposure at 28° C. (E. coli strain MG1655; 1.5 % (w/v) 1-butanol, grown at 28° C.) | % survival after 30 min exposure at 0° C. (E. coli strain MG1655; [3]) | % survival after 30 min exposure at 0° C. (E. coli strain MG1655; [4]) | % survival after 30 min exposure at 28° C. (E. coli strain MG1655; [4]) | % survival after 30 min exposure at 28° C. (E. coli strain MG1655; 2.0 % (w/v) 1-butanol, grown at 28° C.) | % survival after 30 min exposure at 0° C. (E. coli strain MG1655; [5]) | % survival after 30 min exposure at 0° C. (E. coli strain MG1655; [6]) | % survival after 30 min exposure at 28° C. (E. coli strain MG1655; [6]) | % survival after 30 min exposure at 28° C. (E. coli strain MG1655; 3.0 % (w/v) 1-butanol, grown at 28° C.) | % survival after 30 min exposure at 0° C. (E. coli strain MG1655; [7]) | % survival after 30 min exposure at 0° C. (E. coli strain MG1655; [8]) | % survival after 30 min exposure at 28° C. (E. coli strain MG1655; [8]) | % survival after 30 min exposure at 0° C. (E. coli strain MG1655; [9]) | % survival after 30 min exposure at 0° C. (E. coli strain MG1655; [10]) | % survival after 30 min exposure at 0° C. (E. coli strain MG1655; [11]) | % survival after 30 min exposure at 0° C. (E. coli strain MG1655; [12]) | % Survival at 23° C. (L. plantarum PN0512; 2 % v/v 1-butanol) | % Survival at 0° C. (L. plantarum PN0512; 3 % v/v 1-butanol) | % Survival at 0° C. (L. plantarum PN0512; 4 % v/v 1-butanol) | % Survival at 0° C. (L. plantarum PN0512; […] v/v 1-butanol) | % Survival at 30° C. (E. coli (strain MG1655); 1 % v/v 1-butanol) | % Survival at 30° C. (E. coli (strain MG1655); 1.5 % v/v 1-butanol) | % Survival at 30° C. (E. coli (strain MG1655); 2 % v/v 1-butanol) | % Survival at 0° C. (E. coli (strain MG1655); 3 % v/v 1-butanol) | % Survival at 0° C. (E. coli (strain MG1655); 4 % v/v 1-butanol) | % Survival at 0° C. (E. coli (strain MG1655); […] v/v 1-butanol)
0.001%: % survival after 30 min exposure at 0° C. (E. coli strain MG1655; 6.0 % (w/v) 1-butanol, grown at 29° C.)
